Laboratory results reported in patent US20240426847A1, “COMPOSITIONS AND METHODS FOR THE DETERMINATION OF SODIUM CONCENTRATION” (The University of Chicago, priority 2023, published 2024).

How the values were obtained:
PIKfyve = biological target: T1, PIKfyve (Mus musculus, UniProt Q9Z1T6); test: Pharmacological inhibition of macrophages, lysosomal Na^+ measured with RatiNa; format: cell-based, murine; settings: RAW 264.7 macrophages, 100 nM apilimod 1 h; native lysosomes ~48 mM
T1 construct: endogenous in cells; host or cells: RAW 264.7 macrophages
T1 sequence (Q9Z1T6 whole entry): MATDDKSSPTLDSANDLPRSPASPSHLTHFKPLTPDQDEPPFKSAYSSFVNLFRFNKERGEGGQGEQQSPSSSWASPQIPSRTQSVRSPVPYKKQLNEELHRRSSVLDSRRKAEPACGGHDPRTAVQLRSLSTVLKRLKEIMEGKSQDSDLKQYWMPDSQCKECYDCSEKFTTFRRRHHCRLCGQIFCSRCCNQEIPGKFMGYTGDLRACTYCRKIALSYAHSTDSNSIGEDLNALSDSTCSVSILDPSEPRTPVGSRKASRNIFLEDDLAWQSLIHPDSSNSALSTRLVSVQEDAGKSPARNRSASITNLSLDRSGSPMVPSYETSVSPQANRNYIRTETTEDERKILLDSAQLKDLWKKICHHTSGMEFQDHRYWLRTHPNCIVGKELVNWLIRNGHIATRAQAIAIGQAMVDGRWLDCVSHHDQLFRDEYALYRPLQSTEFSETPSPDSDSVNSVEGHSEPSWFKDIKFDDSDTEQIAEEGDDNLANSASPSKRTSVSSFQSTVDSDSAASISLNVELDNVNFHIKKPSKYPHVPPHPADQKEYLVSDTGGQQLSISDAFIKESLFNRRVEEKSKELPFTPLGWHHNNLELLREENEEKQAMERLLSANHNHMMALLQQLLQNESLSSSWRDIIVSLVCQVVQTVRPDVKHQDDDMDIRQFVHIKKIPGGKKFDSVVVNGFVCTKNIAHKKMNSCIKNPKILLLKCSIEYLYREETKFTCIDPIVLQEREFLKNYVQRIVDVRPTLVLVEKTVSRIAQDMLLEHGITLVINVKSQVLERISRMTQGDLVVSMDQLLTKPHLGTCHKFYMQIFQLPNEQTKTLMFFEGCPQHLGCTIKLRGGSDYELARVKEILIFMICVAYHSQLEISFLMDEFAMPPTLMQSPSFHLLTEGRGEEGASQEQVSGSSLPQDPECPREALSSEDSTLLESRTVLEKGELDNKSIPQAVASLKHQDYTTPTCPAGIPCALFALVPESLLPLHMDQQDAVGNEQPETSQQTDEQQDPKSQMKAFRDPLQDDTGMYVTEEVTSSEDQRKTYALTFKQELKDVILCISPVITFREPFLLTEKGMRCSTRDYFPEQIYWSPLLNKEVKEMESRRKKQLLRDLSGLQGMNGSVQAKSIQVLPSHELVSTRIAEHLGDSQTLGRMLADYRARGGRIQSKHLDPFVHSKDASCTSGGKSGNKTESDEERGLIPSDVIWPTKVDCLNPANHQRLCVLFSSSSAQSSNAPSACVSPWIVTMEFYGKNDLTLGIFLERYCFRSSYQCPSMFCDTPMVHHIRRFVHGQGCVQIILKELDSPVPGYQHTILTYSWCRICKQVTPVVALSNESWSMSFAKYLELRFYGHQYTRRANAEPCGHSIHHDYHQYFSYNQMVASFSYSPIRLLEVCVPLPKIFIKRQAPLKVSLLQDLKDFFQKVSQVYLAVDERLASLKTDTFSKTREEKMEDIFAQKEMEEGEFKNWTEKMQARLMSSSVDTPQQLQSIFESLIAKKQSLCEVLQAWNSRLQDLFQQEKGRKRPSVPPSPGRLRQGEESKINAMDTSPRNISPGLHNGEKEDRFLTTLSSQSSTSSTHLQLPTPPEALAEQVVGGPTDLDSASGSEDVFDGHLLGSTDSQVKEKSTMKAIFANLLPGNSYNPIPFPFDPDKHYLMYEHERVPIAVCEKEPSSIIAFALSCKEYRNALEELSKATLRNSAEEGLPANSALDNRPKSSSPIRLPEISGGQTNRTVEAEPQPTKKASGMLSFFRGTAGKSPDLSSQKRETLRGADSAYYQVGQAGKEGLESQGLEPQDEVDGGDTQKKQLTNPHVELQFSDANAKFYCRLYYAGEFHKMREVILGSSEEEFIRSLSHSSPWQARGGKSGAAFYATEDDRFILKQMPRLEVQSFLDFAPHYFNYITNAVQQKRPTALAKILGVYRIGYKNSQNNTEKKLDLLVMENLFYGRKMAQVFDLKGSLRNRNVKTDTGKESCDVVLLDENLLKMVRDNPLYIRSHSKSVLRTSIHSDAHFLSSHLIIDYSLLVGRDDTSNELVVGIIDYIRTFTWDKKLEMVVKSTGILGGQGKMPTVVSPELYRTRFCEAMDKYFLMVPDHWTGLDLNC
Protocol: 1 μM RatiNa in prewarmed Opti-MEM was added to RAW macrophage and incubated for 2 h for maximum RatiNa uptake. Cells were then washed 3 times with PBS and incubated in prewarmed complete DMEM medium for 30 min to allow lysosome targeting of RatiNa. RatiNa in cell was then imaged in confocal microscope or widefield microscope.
RAW macrophage was treated with 100 nM apilimod for 1 h to inhibit PIKfyve. RatiNa treatment was done as stated previously with 100 nM apilimod in all medium. Cell was then imaged in confocal microscope.

[1] = ssDNA-CG Na^+ sensitivity by fluorescence; format: physicochemical; settings: 1 mM and 150 mM NaCl, 100 nM ssDNA-CG, pH 7.4 potassium phosphate buffer
Protocol: FIGS. 12A-12B illustrate the validation of CG-DNA conjugate efficiency and Na^+ sensitivity. […] Molar ratio of DNA to CG is confirmed to be ˜ 1:1 confirming the coupling efficiency. […] 1 mM and 150 mM NaCl was added to 100 nM of ssDNA-CG in pH 7.4 potassium phosphate buffer. Fluorescence maximum at 545 increases more than 5-fold.
100 nM of RatiNa was aliquoted in UB buffer (10 mM HEPES, MES and potassium acetate, 140 mM NaCl/KCl). pH adjusted by HCl or KOH) Fluorescent emission spectra was taken by Fluoromax (Horiba) with the following collection parameters: For CG, dex=522 nm, range from 530 nm to 600 nm. For ATTO647N, dex=645 nm, range from 660 nm to 700 nm.

lysosomal Na^+ upon PIKfyve inhibition (PIKfyve)	Molecule	increase of fluorescence maximum at 545 [1]
~70 mM	Cc1cccc(/C=N/Nc2cc(N3CCOCC3)nc(OCCc3ccccn3)n2)c1 [apilimod]	–
–	ssDNA-CG: 25mer ssDNA conjugated to CG dye by CuAAC coupling (CGATCAACACTGCATATATATACGACC; CG dye conjugated by CuAAC, chemistry not fully specified)	more than 5 fold
